Assay results taken from publication PMC6952399, “Structures of lipoprotein signal peptidase II from Staphylococcus aureus complexed with antibiotics globomycin and myxovirescin” (Nature Communications, 2020).
Values joined by “and” are separate entries in the source; they are usually repeats but may differ in a detail not shown here. Equal entries are not always repeated.

Molecular target: T1, LspPae (lipoprotein signal peptidase II from Pseudomonas aeruginosa) (Pseudomonas aeruginosa, UniProt Q9HVM5)
T1 construct: made in house
T1 sequence (Q9HVM5 1-169): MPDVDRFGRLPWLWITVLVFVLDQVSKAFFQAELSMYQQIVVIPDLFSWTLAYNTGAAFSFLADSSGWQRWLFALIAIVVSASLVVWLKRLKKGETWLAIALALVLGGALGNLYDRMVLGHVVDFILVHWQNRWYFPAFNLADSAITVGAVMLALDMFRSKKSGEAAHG
Assay: FRET lipopeptide peptidase assay, LspPae
Type: biochemical
Settings: for Fluorescence (RFU): FRET substrate + LspA + Globomycin; for Rate (RFU/min) / Normalised rate (Vi/V0): replicates 1 and 2; for Ki: estimated Ki’ (apparent inhibition constant)
Description: FRET activity assays. A FRET based assay was developed using a labelled lipopeptide substrate (Supplementary Methods, Supplementary Fig. 3b) to directly monitor the protease activity of LspA. The optimised LspMrs assay buffer included 100 mM Tris/HCl pH 7.8, 150 mM NaCl and 0.09%(w/v) DDM. The corresponding optimized buffer for LspPae included 100 mM MES/NaOH pH 5.6, 150 mM NaCl and 0.05%(w/v) LMNG. All assays were performed at 37 °C.
Reaction mixtures were prepared by vortexing (Clifton, cyclone CM-1) for 2 s and incubated at 37 °C, 800 rpm for 10 to 30 min. […] For dose-response assays, the final DMSO concentration in all reactions was 10%(v/v). Reaction mixtures were pipetted into wells of a 96- (Thermo Scientific) or a 384-well plate (4titude®) and incubated for 10 min at 37 °C in a SpectraMax M3 or a SpectraMax M5e plate reader (Molecular devices) prior to starting the assay. Assays were initiated by adding enzyme to a final concentration in the range 10–300 nM. Total reaction mixture volume was 50 μL. Reactions were monitored by fluorescence (Ex/Em, 320 nm/420 nm) for 30 to 60 min at 37 °C. Initial rates were calculated from the fluorescence intensity versus time progress curves (Supplementary Figs. 5 and 6). Occasionally, lag periods in the progress curves were observed (Supplementary Discussion). In such cases, initial rates were calculated after the lag period had passed (typically 1–5 min) and a steady rate had been established. Dose-response plots to determine IC50 values were generated using Prism® 5 software from GraphPad.
It was possible to convert units of fluorescence change into moles of substrate consumed or products formed because pure products of LspA action on Abz-LALAGC*SS-nY-NH2 had been synthesized and were available. These were used to create a standard curve of fluorescence versus moles of the two products in equimolar amounts and to calculate specific activity values. […]
One consequence of LspMrs having a relatively low specific activity is that, in order to get a reliable signal in activity assays, it was necessary to raise enzyme concentration. For kinetic measurements generally, it is desirable to use an enzyme concentration that is much lower than that of the substrate. In this situation, the usual assumption that added and free substrate concentrations are equal is valid. At high enzyme concentrations [E] therefore, and especially in the case of tight ligand binding where the inhibition constant, Ki, is small, a measured IC50 is limited to [E]/2 4–6. In such circumstances, a meaningful IC50 or Ki can only be obtained with considerable effort. With a few exceptions in the current study, this situation prevailed with both LspA orthologs where IC50 values came close to [E]/2 (Table 1 and Supplementary Table 3, Supplementary Fig. 6). […]
Inhibition of LspA from E. coli by globomycin has been described as non-competitive7. The evidence provided in support o f this conclusion included an insensitivity of IC 50 to substrate concentration and the fact that the Vmax but not the K m changed with globomycin concentration. It was of interest to determine if a similar mode of inhibition applied to LspPae and LspMrs. From published work7–9 and from FRET-based kinetics measurements reported here, we know that globomycin binds with high affinity (Supplementary Fig. 6). Tight binding means that a more in-depth analysis must be carried out in order to identify inhibition type. For such analysis, it is important to know active enzyme concentration accurately. Fortunately, it was possible to use the property of tight inhibitor binding to measure the concentration of active enzyme ( Supplementary Fig. 18a). In the case of LspPae, the estimated value and the concentration determined spectroscopically agreed remarkably well. Parenthetically we note that knowing active LspPae concentration accurately enabled a characterization of the myxovirescin sample used in this study. Myxovirescin also binds tightly to LspA (Supplementary Fig. 6). […]

[1] = Suppl. Fig. 18a, [Globomycin] 0.02 M
[2] = Suppl. Fig. 18a, [Globomycin] 0.08 M
[3] = Suppl. Fig. 18a, [Globomycin] 0.1 M
[4] = Suppl. Fig. 18a, [Globomycin] 0.12 M
[5] = Suppl. Fig. 18a, [Globomycin] 0.15 M
[6] = Suppl. Fig. 18a, [Globomycin] 0.25 M

CCCCCC[C@H]1OC(=O)CNC(=O)[C@H]([C@H](C)O)NC(=O)[C@H](CO)NC(=O)[C@H]([C@H](C)CC)NC(=O)[C@H](CC(C)C)N(C)C(=O)[C@@H]1C [globomycin]
inhibitor on-rates (5-fold molar excess of antibiotic added 20 to 30 min after start of reaction): fast | Fluorescence (RFU) (time 26.5 min): 472.821 RFU | Fluorescence (RFU) (time 27 min): 466.895 RFU | Fluorescence (RFU) (time 27.5 min): 470.521 RFU | Fluorescence (RFU) (time 28 min): 460.426 RFU | Fluorescence (RFU) (time 28.5 min): 463.196 RFU | Fluorescence (RFU) (time 29 min): 462.392 RFU | Fluorescence (RFU) (time 29.5 min): 469.501 RFU | Fluorescence (RFU) (time 30 min): 460.374 RFU | Fluorescence (RFU) (time 30.5 min): 459.928 RFU | Fluorescence (RFU) (time 31 min): 456.673 RFU | Fluorescence (RFU) (time 31.5 min): 461.288 RFU | Fluorescence (RFU) (time 32 min): 457.637 RFU | Fluorescence (RFU) (time 32.5 min): 459.756 RFU | Fluorescence (RFU) (time 33 min): 461.040 RFU | Fluorescence (RFU) (time 33.5 min): 455.548 RFU | Fluorescence (RFU) (time 34 min): 459.251 RFU | Fluorescence (RFU) (time 34.5 min): 461.912 RFU | Fluorescence (RFU) (time 35 min): 462.029 RFU | Fluorescence (RFU) (time 35.5 min): 459.871 RFU | Fluorescence (RFU) (time 36 min): 456.705 RFU | Fluorescence (RFU) (time 36.5 min): 457.128 RFU | Fluorescence (RFU) (time 37 min): 457.399 RFU | Fluorescence (RFU) (time 37.5 min): 460.693 RFU | Fluorescence (RFU) (time 38 min): 454.401 RFU | Fluorescence (RFU) (time 38.5 min): 457.430 RFU | Fluorescence (RFU) (time 39 min): 456.060 RFU | Fluorescence (RFU) (time 39.5 min): 454.659 RFU | Fluorescence (RFU) (time 40 min): 457.707 RFU | Fluorescence (RFU) (time 40.5 min): 450.482 RFU | Fluorescence (RFU) (time 41 min): 454.135 RFU | Fluorescence (RFU) (time 41.5 min): 449.262 RFU | Fluorescence (RFU) (time 42 min): 454.556 RFU | Fluorescence (RFU) (time 42.5 min): 450.049 RFU | Fluorescence (RFU) (time 43 min): 449.698 RFU | Fluorescence (RFU) (time 43.5 min): 456.047 RFU | Fluorescence (RFU) (time 44 min): 454.046 RFU | Fluorescence (RFU) (time 44.5 min): 452.003 RFU | Fluorescence (RFU) (time 45 min): 447.269 RFU | Fluorescence (RFU) (time 45.5 min): 454.250 RFU | Fluorescence (RFU) (time 46 min): 454.835 RFU | Fluorescence (RFU) (time 46.5 min): 452.245 RFU | Fluorescence (RFU) (time 47 min): 453.938 RFU | Fluorescence (RFU) (time 47.5 min): 452.432 RFU | Fluorescence (RFU) (time 48 min): 453.748 RFU | Fluorescence (RFU) (time 48.5 min): 446.264 RFU | Fluorescence (RFU) (time 49 min): 454.134 RFU | Fluorescence (RFU) (time 49.5 min): 458.300 RFU | Fluorescence (RFU) (time 50 min): 453.740 RFU | Fluorescence (RFU) (time 50.5 min): 458.019 RFU | Fluorescence (RFU) (time 51 min): 452.119 RFU | IC50 (IC50, 20 nM LspPae, substrate 2.5 µM): 5.32 nM and 7.73 nM | IC50 (IC50, 20 nM LspPae, substrate 5 µM): 6.43 nM and 11.1 nM | IC50 (IC50, 20 nM LspPae, substrate 7.5 µM): 6.63 nM and 10.1 nM | IC50 (IC50, 20 nM LspPae, substrate 10 µM): 7.18 nM and 9.58 nM | IC50 (IC50, 20 nM LspPae, substrate 20 µM): 5.81 nM and 8.79 nM | IC50 (IC50, 20 nM LspPae, substrate 30 µM): 5.73 nM and 9.79 nM | IC50 (IC50, FRET, 0.1 µM enzyme, 30 µM substrate, initial rates): 57 nM | IC50 (IC50, LspPae concentration 10 nM): 5.5 nM and 7.7 nM | IC50 (IC50, LspPae concentration 20 nM): 10.6 nM and 17.6 nM | IC50 (IC50, LspPae concentration 40 nM): 22.6 nM and 26.4 nM | IC50 (IC50, LspPae concentration 60 nM): 27.8 nM and 39 nM | IC50 (IC50, LspPae concentration 80 nM): 37.9 nM and 55.3 nM | IC50 (IC50, LspPae concentration 100 nM): 52.6 nM and 61.3 nM | Rate (RFU/min) (LspPae + Globomycin, log [globomycin] (µM) -0.60): 0.6 RFU/min and 0.7 RFU/min | Rate (RFU/min) (LspPae + Globomycin, log [globomycin] (µM) -0.82): 0.856 RFU/min and 1.1 RFU/min | Rate (RFU/min) (LspPae + Globomycin, log [globomycin] (µM) -0.92): 0.9 RFU/min and 0.95 RFU/min | Rate (RFU/min) (LspPae + Globomycin, log [globomycin] (µM) -1.00): 4.1 RFU/min and 3.2 RFU/min | Rate (RFU/min) (LspPae + Globomycin, log [globomycin] (µM) -1.10): 12.3 RFU/min and 11.9 RFU/min | Rate (RFU/min) (LspPae + Globomycin, log [globomycin] (µM) -1.30): 31.7 RFU/min and 30.1 RFU/min | Rate (RFU/min) (LspPae + Globomycin, log [globomycin] (µM) -1.70): 42.7 RFU/min | Normalised rate (Vi/V0) [1]: 0.8723 and 0.8656 | Rate (RFU/min) [1]: 40.92 RFU/min and 41.48 RFU/min | Normalised rate (Vi/V0) (Suppl. Fig. 18a, [Globomycin] 0.05 M): 0.6284 and 0.6375 | Normalised rate (Vi/V0) [2]: 0.2526 and 0.2533 | Rate (RFU/min) [2]: 11.85 RFU/min and 12.14 RFU/min | Normalised rate (Vi/V0) [3]: 0.07205 and 0.07513 | Rate (RFU/min) [3]: 3.38 RFU/min and 3.6 RFU/min | Normalised rate (Vi/V0) [4]: 0.01684 and 0.01523 | Rate (RFU/min) [4]: 0.79 RFU/min and 0.73 RFU/min | Normalised rate (Vi/V0) [5]: 0.0162 and 0.00793 | Rate (RFU/min) [5]: 0.76 RFU/min and 0.38 RFU/min | Normalised rate (Vi/V0) [6]: 0.02132 and 0.008139 | Rate (RFU/min) [6]: 1 RFU/min and 0.39 RFU/min | Rate (RFU/min) (Suppl. Fig. 18a): 29.48 RFU/min and 30.55 RFU/min | IC50 (average IC50, 20 nM LspPae, substrate 2.5 or 5 to 30 µM): ~10 nM | Ki (Morrison analysis, 30 µM substrate, 0.1 µM LspPae): 0.74 ± 0.41 nM | Ki (from dependence of IC50 on enzyme concentration, IC50 = Ki’ + [E]/2): 1.96 ± 3 nM
